Assay: recombinant barcode read abundance after kanamycin selection (control-corrected) (log10(CPM+1)); higher = more efficient recombination; sequences stand for … in AGTGCAGAGAAAATCGGCCAGTTTTCTCTGCCTGCAGTCCGCATGCCGT…AGATTTATGCAGCGGACTGCCTTTCTCCCAAAGTGATAAACCGGACAGTATCATGGACCGGTTTTCCCGGTAATCCGTATTTGCAAGGTTGGTTTCACT; site = the 11-nt target
Method in brief: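 Reported as log10(CPM+1), each value stands for recombination efficiency. That efficiency is the averaged, control-corrected counts per million of barcodes found at recombinant junctions. Cells from a pooled E. coli library pairing targets with IS621 bridge RNA target-binding loops were plated twice on chloramphenicol/ampicillin LB agar (control) and twice on chloramphenicol/ampicillin/kanamycin with 0.1 mM IPTG.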
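Note: IS621 recombinase and bridge RNA in Escherichia coli cells.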

Row | Sequence | recombinant barcode read abundance (log10)
1 | TTAGCGTCTTGGGTTCTAACCTGTTGCCT (site TTAGCCTCTAG) | 0.0674
2 | TTAGCGTCTTGGGTTCTAACCTGTTGCCT (site TTAGCGTCTAG) | 1.73
3 | TTAGCGTCTTGGGTTCTAACCTGTTGCCT (site TTAGCTTCTAG) | 0.129
4 | TTATACACTTGGGTTCTAACCTGTTGCTC (site GATAGGGCTAG) | 0.0179
5 | TTATACACTTGGGTTCTAACCTGTTGCTC (site TTATACACTGA) | 0.919
6 | TTATGATCTTGGGTTCTAACCTGTTGCCT (site TCATGAACTAG) | 0.0371
7 | TTATGATCTTGGGTTCTAACCTGTTGCCT (site TTATGATCTAG) | 0.193
8 | TTATGGGCTTGGGTTCTAACCTGTTGCCG (site TCCTGGGCTCG) | 0.114
9 | TTATGGGCTTGGGTTCTAACCTGTTGCCG (site TTATGGGCTCG) | 0.88
10 | TTCAAGACTTGGGTTCTAACCTGTTGCCT (site TTCAAGACTAG) | 0.681
11 | TTCAAGACTTGGGTTCTAACCTGTTGCCT (site TTCAAGCCTAG) | 0.0955
12 | TTCAAGACTTGGGTTCTAACCTGTTGCCT (site TTCAAGGCTAG) | 0
13 | TTCAAGACTTGGGTTCTAACCTGTTGCCT (site TTCAAGTCTAG) | 0.241
14 | TTCAAGCCTTGGGTTCTAACCTGTTGCGG (site TTCAAGCCTAC) | 0.222
15 | TTCAAGCCTTGGGTTCTAACCTGTTGCGG (site TTCAAGCCTCC) | 1.15
16 | TTCAAGGCTTGGGTTCTAACCTGTTGCCT (site TTCAAGACTAG) | 0.0627
17 | TTCAAGGCTTGGGTTCTAACCTGTTGCCT (site TTCAAGCCTAG) | 0.118
18 | TTCAAGGCTTGGGTTCTAACCTGTTGCCT (site TTCAAGGCTAG) | 0.17
19 | TTCAAGGCTTGGGTTCTAACCTGTTGCCT (site TTCAAGTCTAG) | 0.461
20 | TTCAAGTCTTGGGTTCTAACCTGTTGCGT (site TTCAACTCTAC) | 0.0281
21 | TTCAAGTCTTGGGTTCTAACCTGTTGCGT (site TTCAAGTCTAC) | 1.33
22 | TTCAATTCTTGGGTTCTAACCTGTTGCTT (site TATAATTCTAA) | 0.00963
23 | TTCAATTCTTGGGTTCTAACCTGTTGCTT (site TTCAATTCTAA) | 0.0521
24 | TTCCCTACTTGGGTTCTAACCTGTTGCCT (site CTCCCAACTAG) | 0.102
25 | TTCCCTACTTGGGTTCTAACCTGTTGCCT (site TTCCCTACTAG) | 0.452
26 | TTCCGAGCTTGGGTTCTAACCTGTTGCAG (site CCTACGCCTTG) | 0.216

Row | Sequence | recombinant barcode read abundance (log10)
27 | TTCCGAGCTTGGGTTCTAACCTGTTGCAG (site TTCCGAGCTCT) | 0.873
28 | TTCGGAGCTTGGGTTCTAACCTGTTGCTG (site TTCGGAGCTCA) | 1.56
29 | TTCGGAGCTTGGGTTCTAACCTGTTGCTG (site TTGGGAGCTCA) | 0.0871
30 | TTCGGCTCTTGGGTTCTAACCTGTTGCTA (site CGATCACCTAG) | 0.0491
31 | TTCGGCTCTTGGGTTCTAACCTGTTGCTA (site TTCGGCTCTTA) | 0.605
32 | TTCGTAGCTTGGGTTCTAACCTGTTGCGT (site TTCGTAGCTAC) | 1.29
33 | TTCGTAGCTTGGGTTCTAACCTGTTGCGT (site TTCGTAGCTAG) | 0.285
34 | TTCTACACTTGGGTTCTAACCTGTTGCAT (site GAACCTTCTCC) | 0.107
35 | TTCTACACTTGGGTTCTAACCTGTTGCAT (site TTCTACACTAT) | 0.298
36 | TTCTACTCTTGGGTTCTAACCTGTTGCCT (site CTCTACTCTAG) | 0.75
37 | TTCTACTCTTGGGTTCTAACCTGTTGCCT (site TTCTACTCTAG) | 0.405
38 | TTCTCTCCTTGGGTTCTAACCTGTTGCCT (site TTCTATCCTAG) | 0.0831
39 | TTCTCTCCTTGGGTTCTAACCTGTTGCCT (site TTCTCTCCTAG) | 0.206
40 | TTCTCTCCTTGGGTTCTAACCTGTTGCCT (site TTCTGTCCTAG) | 0.00855
41 | TTCTCTCCTTGGGTTCTAACCTGTTGCCT (site TTCTTTCCTAG) | 0.169
42 | TTCTCTTCTTGGGTTCTAACCTGTTGCCT (site TTCTCTTCTAG) | 0.0495
43 | TTCTCTTCTTGGGTTCTAACCTGTTGCCT (site TTCTGTTCTAG) | 0.103
44 | TTCTGAACTTGGGTTCTAACCTGTTGCCT (site GTCTCAACTAG) | 0.109
45 | TTCTGAACTTGGGTTCTAACCTGTTGCCT (site TTCTGAACTAG) | 0.126
46 | TTCTTACCTTGGGTTCTAACCTGTTGCCT (site TACTTACCTAG) | 0.0709
47 | TTCTTACCTTGGGTTCTAACCTGTTGCCT (site TTCTTACCTAG) | 0.654
48 | TTCTTGCCTTGGGTTCTAACCTGTTGCCT (site TTATTGTCTAG) | 0.111
49 | TTCTTGCCTTGGGTTCTAACCTGTTGCCT (site TTCTTGCCTAG) | 0.665
50 | TTCTTTCCTTGGGTTCTAACCTGTTGCCT (site TTCTATCCTAG) | 0.0663
51 | TTCTTTCCTTGGGTTCTAACCTGTTGCCT (site TTCTCTCCTAG) | 0.0684
52 | TTCTTTCCTTGGGTTCTAACCTGTTGCCT (site TTCTGTCCTAG) | 0.0839

Row | Sequence | recombinant barcode read abundance (log10)
53 | TTCTTTCCTTGGGTTCTAACCTGTTGCCT (site TTCTTTCCTAG) | 0.11
54 | TTGACGACTTGGGTTCTAACCTGTTGCCA (site TTGACGACTTG) | 0.36
55 | TTGACGACTTGGGTTCTAACCTGTTGCCA (site TTGCCGACTTG) | 0.217
56 | TTGACGACTTGGGTTCTAACCTGTTGCCA (site TTGGCGACTTG) | 0.116
57 | TTGACGACTTGGGTTCTAACCTGTTGCCA (site TTGTCGACTTG) | 0.0686
58 | TTGACGGCTTGGGTTCTAACCTGTTGCCT (site CCATTCCCTTA) | 0.041
59 | TTGACGGCTTGGGTTCTAACCTGTTGCCT (site TTGACGGCTAG) | 0.165
60 | TTGAGGACTTGGGTTCTAACCTGTTGCCT (site ATGAGGACTAG) | 0.0377
61 | TTGAGGACTTGGGTTCTAACCTGTTGCCT (site CTGAGGACTAG) | 0.146
62 | TTGAGGACTTGGGTTCTAACCTGTTGCCT (site GTGAGGACTAG) | 0
63 | TTGAGGACTTGGGTTCTAACCTGTTGCCT (site TTGAGGACTAG) | 0.606
64 | TTGAGGCCTTGGGTTCTAACCTGTTGCGG (site TCGAGTCCTCC) | 0.141
65 | TTGAGGCCTTGGGTTCTAACCTGTTGCGG (site TTGAGGCCTCC) | 2.39
66 | TTGAGTGCTTGGGTTCTAACCTGTTGCCT (site TTGAATGCTAG) | 0.259
67 | TTGAGTGCTTGGGTTCTAACCTGTTGCCT (site TTGACTGCTAG) | 0.0508
68 | TTGAGTGCTTGGGTTCTAACCTGTTGCCT (site TTGAGTGCTAG) | 0.804
69 | TTGAGTGCTTGGGTTCTAACCTGTTGCCT (site TTGATTGCTAG) | 0.254
70 | TTGATTGCTTGGGTTCTAACCTGTTGCCT (site TTGAATGCTAG) | 0.0762
71 | TTGATTGCTTGGGTTCTAACCTGTTGCCT (site TTGACTGCTAG) | 0.0306
72 | TTGATTGCTTGGGTTCTAACCTGTTGCCT (site TTGAGTGCTAG) | 0.425
73 | TTGATTGCTTGGGTTCTAACCTGTTGCCT (site TTGATTGCTAG) | 0.497
74 | TTGCGTGCTTGGGTTCTAACCTGTTGCTT (site TTGCGAGCTAT) | 0.27
75 | TTGCGTGCTTGGGTTCTAACCTGTTGCTT (site TTGCGTGCTAA) | 0.518
76 | TTGCTAGCTTGGGTTCTAACCTGTTGCGG (site GGAACTACTGT) | 0.0762
77 | TTGCTAGCTTGGGTTCTAACCTGTTGCGG (site TTGCTAGCTCC) | 1.56

Source: the supplement of paper PMC11208160
